This experiment deals with Genome polyprotein (Dengue virus type 2 (strain 16681-PDK53)) (UniProt P29991). The experiment in a line: Dengue-2 NS5 methyltransferase inhibitors, primary screen, biochemical, confirmation dose response (AID 588689). Particulars: Dengue-2 NS5 methyltransferase capping enzyme assay.

SMILES strings stand for the structures.

Sequence of Genome polyprotein (Dengue virus type 2 (strain 16681-PDK53)) (P29991 whole entry, looked up): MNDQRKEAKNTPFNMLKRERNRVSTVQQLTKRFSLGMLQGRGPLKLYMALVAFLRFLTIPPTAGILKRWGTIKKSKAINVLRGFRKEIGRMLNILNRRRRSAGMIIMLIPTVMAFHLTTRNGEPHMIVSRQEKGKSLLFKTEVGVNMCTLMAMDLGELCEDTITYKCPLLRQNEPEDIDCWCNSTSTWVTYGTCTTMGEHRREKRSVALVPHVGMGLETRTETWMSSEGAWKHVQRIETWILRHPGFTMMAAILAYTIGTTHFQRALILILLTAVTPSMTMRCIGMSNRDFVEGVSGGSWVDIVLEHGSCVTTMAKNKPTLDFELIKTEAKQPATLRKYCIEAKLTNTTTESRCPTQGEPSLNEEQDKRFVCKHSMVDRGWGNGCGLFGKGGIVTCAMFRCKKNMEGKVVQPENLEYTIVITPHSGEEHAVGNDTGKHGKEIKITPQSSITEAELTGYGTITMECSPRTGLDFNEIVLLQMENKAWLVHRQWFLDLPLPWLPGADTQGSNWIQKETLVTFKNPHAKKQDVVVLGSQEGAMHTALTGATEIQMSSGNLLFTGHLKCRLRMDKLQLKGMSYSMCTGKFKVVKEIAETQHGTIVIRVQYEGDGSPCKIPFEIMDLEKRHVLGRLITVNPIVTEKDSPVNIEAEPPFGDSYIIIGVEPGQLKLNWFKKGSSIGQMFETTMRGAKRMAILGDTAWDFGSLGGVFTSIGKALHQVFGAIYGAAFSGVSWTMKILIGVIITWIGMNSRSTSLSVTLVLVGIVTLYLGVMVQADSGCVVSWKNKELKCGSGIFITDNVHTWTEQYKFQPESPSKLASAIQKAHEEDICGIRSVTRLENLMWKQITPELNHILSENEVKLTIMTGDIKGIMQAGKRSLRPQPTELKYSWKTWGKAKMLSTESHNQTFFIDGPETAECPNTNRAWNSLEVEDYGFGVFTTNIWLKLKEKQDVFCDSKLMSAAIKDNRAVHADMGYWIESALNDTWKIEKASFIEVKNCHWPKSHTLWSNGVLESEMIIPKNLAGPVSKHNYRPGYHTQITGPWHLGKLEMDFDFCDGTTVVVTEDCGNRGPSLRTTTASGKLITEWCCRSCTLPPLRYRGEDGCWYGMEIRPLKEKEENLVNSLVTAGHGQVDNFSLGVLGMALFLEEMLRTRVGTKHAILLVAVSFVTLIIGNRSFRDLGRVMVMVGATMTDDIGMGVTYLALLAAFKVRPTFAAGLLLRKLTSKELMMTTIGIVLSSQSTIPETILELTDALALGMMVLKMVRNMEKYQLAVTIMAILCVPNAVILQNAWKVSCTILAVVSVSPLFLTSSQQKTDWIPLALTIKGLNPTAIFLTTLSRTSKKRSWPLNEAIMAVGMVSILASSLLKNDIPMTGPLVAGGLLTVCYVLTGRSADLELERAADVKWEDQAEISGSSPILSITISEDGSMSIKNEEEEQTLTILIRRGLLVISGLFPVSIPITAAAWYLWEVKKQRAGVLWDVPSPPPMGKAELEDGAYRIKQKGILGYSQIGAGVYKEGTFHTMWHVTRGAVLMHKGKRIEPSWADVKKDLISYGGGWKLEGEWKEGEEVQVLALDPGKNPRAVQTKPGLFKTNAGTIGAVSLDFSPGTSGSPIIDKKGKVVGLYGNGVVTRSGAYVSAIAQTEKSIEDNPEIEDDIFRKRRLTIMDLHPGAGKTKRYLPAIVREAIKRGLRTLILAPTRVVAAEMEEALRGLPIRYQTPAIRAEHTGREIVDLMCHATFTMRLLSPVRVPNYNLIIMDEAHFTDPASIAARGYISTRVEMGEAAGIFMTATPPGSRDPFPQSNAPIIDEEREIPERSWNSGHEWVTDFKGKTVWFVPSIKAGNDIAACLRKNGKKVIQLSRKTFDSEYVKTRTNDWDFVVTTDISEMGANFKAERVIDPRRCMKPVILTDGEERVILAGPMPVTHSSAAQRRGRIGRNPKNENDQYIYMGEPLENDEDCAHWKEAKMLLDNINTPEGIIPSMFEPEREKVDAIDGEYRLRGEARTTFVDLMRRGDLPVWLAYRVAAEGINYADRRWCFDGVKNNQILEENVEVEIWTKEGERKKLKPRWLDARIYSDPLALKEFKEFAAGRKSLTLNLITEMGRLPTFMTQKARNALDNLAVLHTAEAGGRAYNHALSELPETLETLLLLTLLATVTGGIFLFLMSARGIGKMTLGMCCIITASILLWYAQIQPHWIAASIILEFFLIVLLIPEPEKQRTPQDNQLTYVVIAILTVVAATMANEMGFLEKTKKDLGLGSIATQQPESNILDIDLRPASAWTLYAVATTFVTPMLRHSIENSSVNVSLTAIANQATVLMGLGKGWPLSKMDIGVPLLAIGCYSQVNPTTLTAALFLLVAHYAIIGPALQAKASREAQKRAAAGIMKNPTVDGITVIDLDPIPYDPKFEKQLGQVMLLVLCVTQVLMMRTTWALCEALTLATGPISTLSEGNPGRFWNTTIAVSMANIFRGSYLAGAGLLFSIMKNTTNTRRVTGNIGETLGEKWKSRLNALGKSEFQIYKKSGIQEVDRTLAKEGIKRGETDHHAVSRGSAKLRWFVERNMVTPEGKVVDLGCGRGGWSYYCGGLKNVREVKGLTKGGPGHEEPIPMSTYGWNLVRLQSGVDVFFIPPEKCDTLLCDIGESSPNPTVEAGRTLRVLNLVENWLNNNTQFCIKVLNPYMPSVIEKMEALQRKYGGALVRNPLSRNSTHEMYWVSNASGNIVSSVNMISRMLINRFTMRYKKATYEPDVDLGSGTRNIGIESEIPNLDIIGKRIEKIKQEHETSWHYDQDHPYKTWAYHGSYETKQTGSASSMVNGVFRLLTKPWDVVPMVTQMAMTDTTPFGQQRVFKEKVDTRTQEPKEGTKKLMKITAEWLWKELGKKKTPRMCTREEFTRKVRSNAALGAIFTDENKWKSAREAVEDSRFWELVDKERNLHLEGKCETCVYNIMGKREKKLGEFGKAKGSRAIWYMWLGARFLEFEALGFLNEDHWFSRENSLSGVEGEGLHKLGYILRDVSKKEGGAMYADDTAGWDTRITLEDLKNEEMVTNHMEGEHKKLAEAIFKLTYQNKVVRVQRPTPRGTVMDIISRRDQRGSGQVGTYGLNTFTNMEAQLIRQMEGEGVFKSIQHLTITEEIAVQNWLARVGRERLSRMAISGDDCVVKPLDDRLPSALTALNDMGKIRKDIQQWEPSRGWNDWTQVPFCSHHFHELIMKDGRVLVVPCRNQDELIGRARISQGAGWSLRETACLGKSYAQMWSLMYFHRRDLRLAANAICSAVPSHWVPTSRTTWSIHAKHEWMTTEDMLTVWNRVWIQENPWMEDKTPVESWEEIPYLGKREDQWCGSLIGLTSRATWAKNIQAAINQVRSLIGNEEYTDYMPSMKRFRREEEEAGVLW

`C=Cc1c(C)c2cc3[nH]c(cc4nc(cc5nc(cc1[nH]2)C(C)=C5CCC(=O)O)C(CCC(=O)O)=C4C)c(C)c3C=C`: the IC50 was 34.6 µM. Turning to `CCCCC1(C)OC(=O)C(=Cc2ccc(-c3ccc(Cl)c(C(=O)O)c3)o2)C(=O)O1` (configuration not stated), the concentration for half-maximal inhibition (IC50) is 14 µM.

The values are drawn from PubChem BioAssay AID588689 (Southern Research Specialized Biocontainment Screening …, 2011).
